Laboratory results taken from patent US11725000B2, “Apoptosis inhibitors” (National Institute of Biological Sciences, Beijing, priority 2017, dated 2023).

system: U2OS_Bim cells; assay: Apoptosis inhibition assay (Bim-induced apoptosis, cell viability by ATP level); assay type: cell-based; details: U2OS_Bim cells; estimated (*Est.) / preliminary results; numbering of Tables 4a/4b; read-out: EC50
Summary of the method: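 Apoptosis was triggered by doxycycline (0.1 μg/mL) induction of Bim, one hour after compound addition to U2OS_Bim cells. Survival was measured after 24 h from cellular ATP (CellTiter-Glo), relative to DMSO, with zVAD at 20 μM as rescue control. Data are duplicate means, some estimated from preliminary results.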

SMILES | EC50
Cc1cc(-c2cc(F)c(=O)n(Cc3ccc4c(c3)OCO4)c2)nc(S(=O)(=O)CCC(OCc2cncn2C)c2ccccc2)n1 (stereo not drawn) [Compound 404] | 1 to 1000 nM
Cc1cc(-c2cc(F)c(=O)n(Cc3ccc4c(c3)OCO4)c2)nc(S(=O)(=O)CCC(OCc2ccco2)c2ccccc2)n1 (stereo not drawn) [Compound 407] | 1 to 1000 nM
Cc1cc(-c2cc(F)c(=O)n(Cc3ccc4c(c3)OCO4)c2)nc(S(=O)(=O)CCC(OCc2cccs2)c2ccccc2)n1 (stereo not drawn) [Compound 405] | 1 to 1000 nM
Cc1cc(-c2cc(F)c(=O)n(Cc3ccc4c(c3)CC(=O)N4C)c2)nc(S(=O)(=O)CCC(OCc2ccccc2F)c2ccccc2)n1 (stereo not drawn) [Compound 351] | 1 to 1000 nM
Cc1cc(-c2cc(F)c(=O)n(Cc3ccc4c(c3)OCO4)c2)nc(S(=O)(=O)CCCN(c2ccccc2)C(C)(C)C)n1 [Compound 377] | 1 to 1000 nM
Cc1cc(-c2cc(F)c(=O)n(Cc3ccc4c(c3)OCO4)c2)nc(S(=O)(=O)CCC(OCc2ccccc2F)c2ccccn2)n1 (stereo not drawn) [Compound 383] | 1 to 1000 nM
Cc1cc(-c2cc(F)c(=O)n(Cc3ccc4c(c3)OCO4)c2)nc(S(=O)(=O)CCC(OCc2ccccc2F)c2ccco2)n1 (stereo not drawn) [Compound 388] | 1 to 1000 nM
Cc1cc(-c2cc(F)c(=O)n(Cc3ccc4c(c3)OCO4)c2)nc(S(=O)(=O)CCC(OCC2CC2)c2ccccc2)n1 (stereo not drawn) [Compound 418] | 1 to 1000 nM
Cc1cc(-c2cc(F)c(=O)n(Cc3ccc4ccn(C)c4c3)c2)nc(S(=O)(=O)CCC(OCc2ccccc2F)c2ccccc2)n1 (stereo not drawn) [Compound 349] | 1 to 1000 nM
COc1ccc(Cn2cc(-c3cc(C(F)F)nc(S(=O)(=O)CCCOCc4ccccc4)n3)ccc2=O)cc1OC [Compound 272, 5-(2-((3-(benzyloxy)propyl)sulfonyl)-6-(difluoromethyl)pyrimidin-4-yl)-1-(3,4-dimethoxybenzyl)pyridin-2 (1H)-one] | 1 to 1000 nM

same assay, conditions: U2OS_Bim cells; estimated based on preliminary results; numbering of Tables 4a/4b; read-out: EC50

SMILES | EC50
COc1ccc(Cn2cc(-c3cc(-n4cccc4)nc(S(C)(=O)=O)n3)ccc2=O)cc1OC [Compound 219] | < 10000 nM
CS(=O)(=O)c1nc(-c2ccc(=O)n(Cc3ccc4cnccc4c3)c2)cc(C(F)(F)F)n1 [Compound 248] | < 10000 nM
CNc1ccc(Cn2cc(-c3cc(C(F)(F)F)nc([S+](C)[O-])n3)ccc2=O)cc1OC (stereo not drawn) [Compound 237] | < 10000 nM
CS(=O)(=O)c1nc(-c2ccc(=O)n(Cc3ccc4scnc4c3)c2)cc(C(F)(F)F)n1 [Compound 226] | < 10000 nM
CCc1ccc(Cn2cc(-c3cc(C(F)(F)F)nc(S(C)(=O)=O)n3)ccc2=O)cc1OC [Compound 264] | < 10000 nM
C[S+]([O-])c1nc(-c2ccc(=O)n(CC3=Cc4ccccc4C3)c2)cc(C(F)(F)F)n1 (stereo not drawn) [Compound 255] | < 10000 nM
CCc1cc(Cn2cc(-c3cc(C(F)(F)F)nc([S+](C)[O-])n3)ccc2=O)ccc1OC (stereo not drawn) [Compound 263] | < 10000 nM

same assay, conditions: U2OS_Bim cells; means of duplicates; numbering of Tables 4a/4b; read-out: EC50

SMILES | EC50
CS(=O)(=O)c1nc(CF)cc(-c2cc(F)c(=O)n(Cc3ccc4c(c3)OCO4)c2)n1 [Compound 334, 1-(benzo[d][1,3]dioxol-5-ylmethyl)-3-fluoro-5-(6-(fluoromethyl)-2-(methylsulfonyl)pyrimidin-4-yl)pyridin-2 (1H)-one] | 1000 to 10000 nM
O=S(=O)(CCC(Cl)c1ccccc1)c1nc(-c2cccs2)cc(C(F)(F)F)n1 (stereo not drawn) [Compound 292, 2-((3-chloro-3-phenylpropyl)sulfonyl)-4-(thiophen-2-yl)-6-(trifluoromethyl)pyrimidine] | 1000 to 10000 nM
COc1ccc(Cn2cc(-c3cc(CF)nc(S(=O)(=O)CCC(OCc4ccccc4)c4ccccc4)n3)ccc2=O)cc1OC (stereo not drawn) [Compound 282, 5-(2-((3-(benzyloxy)-3-phenylpropyl)sulfonyl)-6-(fluoromethyl)pyrimidin-4-yl)-1-(3,4-dimethoxybenzyl)pyridin-2 (1H)-one] | 1 to 1000 nM
COc1ccc(Cn2cc(-c3nc(S(=O)(=O)CCC(OCc4ccccc4F)c4ccccc4)nc4sccc34)cc(F)c2=O)cc1F (stereo not drawn) [Compound 302, 3-fluoro-1-(3-fluoro-4-methoxybenzyl)-5-(2-(3-(2-fluorobenzyloxy)-3-phenylpropylsulfonyl)thieno[2,3-d]pyrimidin-4-yl)pyridin-2 (1H)-one] | 1 to 1000 nM
COc1ccc(-c2cc(C(F)(F)F)nc(S(C)(=O)=O)n2)cc1 [Compound 53, 4-(4-methoxyphenyl)-2-(methylsulfonyl)-6-(trifluoromethyl)pyrimidine] | < 100000 nM
COc1cccc(CS(=O)(=O)c2nc(-c3ccc(=O)n(Cc4ccc(OC)c(OC)c4)c3)cc(C(F)F)n2)c1 [Compound 172, 5-(6-(difluoromethyl)-2-((3-methoxybenzyl)sulfonyl)pyrimidin-4-yl)-1-(3,4-dimethoxybenzyl)pyridin-2 (1H)-one] | 1 to 1000 nM
C#CCn1cc(-c2cc(C(F)(F)F)nc([S+](C)[O-])n2)ccc1=O (stereo not drawn) [Compound 101, 5-(2-(methylsulfinyl)-6-(trifluoromethyl)pyrimidin-4-yl)-1-(prop-2-yn-1-yl) pyridin-2 (1H)-one] | 1000 to 10000 nM
COc1ccc(Cn2ccc(-c3cc(C(F)(F)F)nc(S(C)(=O)=O)n3)c2)cc1 [Compound 91, 4-(1-(4-methoxybenzyl)-1H-pyrrol-3-yl)-2-(methylsulfonyl)-6-(trifluoromethyl)pyrimidine] | < 100000 nM
CS(=O)(=O)c1nc(-c2cccs2)cc(N2CCOCC2)n1 [Compound 40, 4-(2-(methylsulfonyl)-6-(thiophen-2-yl)pyrimidin-4-yl)morpholine] | < 100000 nM
Cc1cc(-c2cc(F)c(=O)n(Cc3ccc4scnc4c3)c2)nc(S(=O)(=O)CCC(OCc2ccccc2F)c2ccccc2)n1 (stereo not drawn) [Compound 326, 1-(benzo[d]thiazol-5-ylmethyl)-3-fluoro-5-(2-(3-(2-fluorobenzyloxy)-3-phenylpropylsulfonyl)-6-methylpyrimidin-4-yl)pyridin-2 (1H)-one] | 1 to 1000 nM
CS(=O)(=O)c1nc(-c2cc[nH]c2)cc(C(F)(F)F)n1 [Compound 87, 2-(methylsulfonyl)-4-(1H-pyrrol-3-yl)-6-(trifluoromethyl)pyrimidine] | < 100000 nM
COc1ccc(Cn2cc(-c3cc(C(F)(F)F)nc(S(C)(=O)=O)n3)ccc2=O)c(Cl)c1 [Compound 126, 1-(2-chloro-4-methoxybenzyl)-5-(2-(methylsulfonyl)-6-(trifluoromethyl)pyrimidin-4-yl)pyridin-2 (1H)-one] | 1 to 1000 nM
C[S+]([O-])c1nc(-c2cccc3ccccc23)cc(C(F)(F)F)n1 (stereo not drawn) [Compound 77, 2-(methylsulfinyl)-4-(naphthalen-1-yl)-6-(trifluoromethyl)pyrimidine] | < 100000 nM
COc1ccc(Cn2cc(-c3cc(C(F)F)nc(S(=O)(=O)CCC(OCc4ccccc4F)c4ccccc4)n3)ccc2=O)cc1F (stereo not drawn) [Compound 284, 5-(6-(difluoromethyl)-2-(3-(2-fluorobenzyloxy)-3-phenylpropylsulfonyl)pyrimidin-4-yl)-1-(3-fluoro-4-methoxybenzyl)pyridin-2 (1H)-one] | 1 to 1000 nM
COC(=O)c1cccc(-c2cc(C(F)(F)F)nc(S(C)(=O)=O)n2)c1 [Compound 60, methyl 3-(2-(methylsulfonyl)-6-(trifluoromethyl)pyrimidin-4-yl)benzoate] | < 100000 nM
Cc1cc(-c2cnc(OCc3ccc4c(cnn4C)c3)c(F)c2)nc(S(=O)(=O)CCC(OCc2ccccc2F)c2ccccc2)n1 (stereo not drawn) [Compound 328, 5-((3-fluoro-5-(2-(3-(2-fluorobenzyloxy)-3-phenylpropylsulfonyl)-6-methylpyrimidin-4-yl)pyridin-2-yloxy)methyl)-1-methyl-1H-indazole] | < 100000 nM
Cc1cc(-c2cc(F)c(=O)n(CC3CCCCC3)c2)nc([S+]([O-])CCC(OCc2ccc(F)cc2F)c2ccccc2)n1 (stereo not drawn) [Compound 308, 1-(cyclohexylmethyl)-5-(2-(3-(2,4-difluorobenzyloxy)-3-phenylpropylsulfinyl)-6-methylpyrimidin-4-yl)-3-fluoropyridin-2 (1H)-one] | < 100000 nM
COc1ccc(Cn2cc(-c3cc(C(F)(F)F)nc(S(C)(=O)=O)n3)ccc2=O)cc1OC [Compound 127, 1-(3,4-dimethoxybenzyl)-5-(2-(methylsulfonyl)-6-(trifluoromethyl)pyrimidin-4-yl)pyridin-2 (1H)-one] | 1 to 1000 nM
CS(=O)(=O)c1nc(-c2cccc(F)c2)cc(C(F)(F)F)n1 [Compound 44, 4-(3-fluorophenyl)-2-(methylsulfonyl)-6-(trifluoromethyl)pyrimidine] | 1000 to 10000 nM
COc1ccc(Cn2cc(-c3cc(C(C)=O)nc(S(C)(=O)=O)n3)ccc2=O)cc1OC [Compound 163, 5-(6-acetyl-2-(methylsulfonyl)pyrimidin-4-yl)-1-(3,4-dimethoxybenzyl)pyridin-2 (1H)-one] | 1 to 1000 nM
CCCOc1cccc(Cn2cc(-c3cc(C(F)(F)F)nc(S(C)(=O)=O)n3)ccc2=O)c1 [Compound 113, 5-(2-(methylsulfonyl)-6-(trifluoromethyl)pyrimidin-4-yl)-1-(3-propoxybenzyl)pyridin-2 (1H)-one] | 1 to 1000 nM
COc1ncccc1-c1cc(C(F)(F)F)nc(S(C)(=O)=O)n1 [Compound 78, 4-(2-methoxypyridin-3-yl)-2-(methylsulfonyl)-6-(trifluoromethyl)pyrimidine] | < 100000 nM
COC(=O)c1ccc(-c2cc(C(F)(F)F)nc(S(C)(=O)=O)n2)cc1 [Compound 61, methyl 4-(2-(methylsulfonyl)-6-(trifluoromethyl)pyrimidin-4-yl)benzoate] | < 100000 nM
Cc1cc(-c2cc(F)c(=O)n(CC3CCCCC3)c2)nc(S(=O)(=O)CCC(OCc2ccc(F)cc2F)c2ccccc2)n1 (stereo not drawn) [Compound 309, 1-(cyclohexylmethyl)-5-(2-(3-(2,4-difluorobenzyloxy)-3-phenylpropylsulfonyl)-6-methylpyrimidin-4-yl)-3-fluoropyridin-2 (1H)-one] | 1000 to 10000 nM
COc1ccc(Cn2cc(-c3cc(C(F)F)nc(S(C)(=O)=O)n3)cc(F)c2=O)cc1OC [Compound 165, 5-(6-(difluoromethyl)-2-(methylsulfonyl)pyrimidin-4-yl)-1-(3,4-dimethoxybenzyl)-3-fluoropyridin-2 (1H)-one] | 1 to 1000 nM
